Measured values from US8034940B2, “Modulators of glucocorticoid receptor, AP-1, and/or NF-κB activity and use thereof” (Bristol-Myers Squibb Company, priority 2006, dated 2011).

Tested on: AP-1 induced transcriptional activity
Test: Cellular Transrepressional Assay (AP-1 luciferase reporter, PMA-activated A549 cells)
Format: cell-based
Settings: for AP-1 Max % inh (Cellular Transrepression Assay) / Emax: maximum inhibition; for Emax: A549, 7 h, read-out: AP-1 Max % inh (Cellular Transrepression Assay)
Protocol: Cellular Transrepressional Assay
To measure the ability of test molecules to inhibit AP-1 induced transcriptional activity we utilized an A549 cell which was stably transfected with a plasmid containing 7× AP-1 DNA binding sites (pAP-1-Luc plasmid, Stratagene Co. La Jolla, Calif.) followed by the gene for luciferase. Cells were activated with 10 ng/ml of […] (PMA) plus or minus test molecules for 7 hours. After 7 hours a luciferase reagent was added to measure luciferase enzymatic activity in the cell. After a 10 minute incubation of luciferase reagent with cells, luminescence was measured in a TopCount luminescence counter. Repression of AP-1 activity was calculated as the percentage decrease in the signal induced by PMA alone. Test molecules were analyzed in the concentration range from 0.1 nM to 40 μM. EC50s were determined by using standard curve fitting methods such as Excel fit (Microsoft Co.).

[1] = Homo sapiens, Cellular Transrepression Assay
[2] = Homo sapiens, A549, Cellular Transrepression Assay

SMILES | EC50 (Cellular Transrepression Assay) [nM] | EC50 [2] [nM] | AP-1 Max % inh (Cellular Transrepression Assay) (Cellular Transrepression Assay) [%] | Emax [1] [%]
CCCCCc1ccc(-c2ccc3c(n2)Oc2ccccc2C3C(C)(C)C(=O)Nc2nncs2)cc1 (stereo not drawn) [Example 220] | 105 |  | 52.23 | 
CC(C)(C(=O)Nc1nncs1)[C@H]1c2ccccc2Oc2nc(-c3ccc(C4CCCCC4)cc3)ccc21 [Example 221] | 28.9 |  | 62.97 | 
CCCCc1ccc(-c2ccc3c(n2)Oc2ccccc2C3C(C)(C)C(=O)Nc2nncs2)c(C)c1 (stereo not drawn) [Example 222] | 100 |  | 61.88 | 
CCS(=O)(=O)c1ccc(-c2ccc3c(n2)Oc2ccccc2C3C(C)(C)C(=O)Nc2nncs2)cc1 (stereo not drawn) [Example 227] | 37.9 |  | 42.50 | 
CC(C)S(=O)(=O)c1ccc(-c2ccc3c(n2)Oc2ccccc2C3C(C)(C)C(=O)Nc2nncs2)cc1 (stereo not drawn) [Example 228] | 51.5 |  | 28.32 | 
CCNS(=O)(=O)c1ccc(-c2ccc3c(n2)Oc2ccccc2C3C(C)(C)C(=O)Nc2nncs2)cc1 (stereo not drawn) [Example 234] | 405 |  | 27.08 | 
COC(=O)Cc1ccc(-c2ccc3c(n2)Oc2ccccc2[C@@H]3C(C)(C)C(=O)Nc2nncs2)cc1 [Example 238] |  | 601 |  | 62.3
CC(C)Oc1ccc(-c2ccc3c(n2)Oc2ccccc2[C@@H]3C(C)(C)C(=O)Nc2nccs2)cc1F [Example 246] |  | 325 |  | 81.8
CC(C)(C(=O)Nc1nncs1)[C@H]1c2ccccc2Oc2nc(-c3ccc(C(=O)N4CCCCC4)cc3)ccc21 [Example 247] |  | 4.74 |  | 52.4
CC(C)(C(=O)Nc1nncs1)[C@H]1c2ccccc2Oc2nc(-c3ccc(C(=O)N4CCCCC4)c(F)c3)ccc21 [Example 249] | 11.2 |  | 42.38 | 
CCN(C)C(=O)c1ccc(-c2ccc3c(n2)Oc2ccccc2C3C(C)(C)C(=O)Nc2nncs2)cc1 (stereo not drawn) [Example 251] | 17.4 |  | 54.92 | 
CC(C)(C(=O)Nc1nncs1)[C@H]1c2ccccc2Oc2nc(-c3ccc(C(=O)N4CCCC4)cc3)ccc21 [Example 252] | 34.6 |  | 60.94 | 
CCCN(C)C(=O)c1ccc(-c2ccc3c(n2)Oc2ccccc2C3C(C)(C)C(=O)Nc2nncs2)cc1 (stereo not drawn) [Example 254] | 23.6 |  | 41.80 | 
CC(C)(C(=O)Nc1nncs1)[C@H]1c2ccccc2Oc2nc(-c3ccc(C(=O)N4CCOCC4)cc3)ccc21 [Example 257] | 12.4 |  | 63.96 | 
CC(C)N(C)C(=O)c1ccc(-c2ccc3c(n2)Oc2ccccc2C3C(C)(C)C(=O)Nc2nncs2)cc1 (stereo not drawn) [Example 258] | 534 |  | 40.99 | 
CCN(CC)C(=O)c1ccc(-c2ccc3c(n2)Oc2ccccc2[C@@H]3C(C)(C)C(=O)Nc2nncs2)cc1F [Example 259] |  | 72.2 |  | 23.3
CCN(CC)C(=O)c1ccc(-c2ccc3c(n2)Oc2ccccc2[C@@H]3C(C)(C)C(=O)Nc2nncs2)cc1Cl [Example 263] |  | 15.4 |  | 58

SMILES | EC50 (Cellular Transrepression Assay) [nM] | EC50 [2] [nM] | AP-1 Max % inh (Cellular Transrepression Assay) (Cellular Transrepression Assay) [%] | Emax [1] [%]
CC(C)(C(=O)Nc1nncs1)[C@H]1c2ccccc2Oc2nc(-c3ccc(C(=O)N4CCCCC4)c(Cl)c3)ccc21 [Example 264] | 115 |  | 33.74 | 
CN(CCC#N)C(=O)c1ccc(-c2ccc3c(n2)Oc2ccccc2[C@@H]3C(C)(C)C(=O)Nc2nncs2)cc1 [Example 267] | 569 |  | 40.78 | 
CC(=O)N1CCN(C(=O)c2ccc(-c3ccc4c(n3)Oc3ccccc3[C@@H]4C(C)(C)C(=O)Nc3nncs3)cc2)CC1 [Example 274] |  | 234 |  | 62.2
CC(C)(C(=O)Nc1nncs1)[C@H]1c2ccccc2Oc2nc(-c3ccc(C(=O)N4CCC(F)(F)CC4)cc3)ccc21 [Example 300] |  | 14.8 |  | 61.8
COC1CCN(C(=O)c2ccc(-c3ccc4c(n3)Oc3ccccc3[C@@H]4C(C)(C)C(=O)Nc3nncs3)cc2)CC1 [Example 309] | 41.5 |  | 34.95 | 
CC(C)(C(=O)Nc1nncs1)[C@H]1c2ccccc2Oc2nc(-c3ccc(C(=O)N4CCS(=O)(=O)CC4)cc3)ccc21 [Example 310] |  | 786 |  | 52.9
CC(C)(C(=O)Nc1nncs1)[C@H]1c2ccccc2Oc2nc(-c3ccc(C(=O)N4CCC[C@@H]4C(N)=O)cc3)ccc21 [Example 312] |  | 267 |  | 73.1
CC(C)(C(=O)Nc1nncs1)[C@H]1c2ccccc2Oc2nc(-c3ccc(C(=O)N4CCC(F)(F)C4)cc3)ccc21 [Example 314] |  | 18 |  | 69.8
CC(C)(C(=O)Nc1nncs1)[C@H]1c2ccccc2Oc2nc(-c3ccc(C(=O)N4CC(O)C4)cc3)ccc21 [Example 315] |  | 750 |  | 40.9
CC(C)(C(=O)Nc1nncs1)[C@H]1c2ccccc2Oc2nc(-c3ccc(C(=O)N4CCCC4C#N)cc3)ccc21 (stereo partly drawn) [Example 316] |  | 60.9 |  | 35.9
CC(C)C1CCCN1C(=O)c1ccc(-c2ccc3c(n2)Oc2ccccc2[C@@H]3C(C)(C)C(=O)Nc2nncs2)cc1 (stereo partly drawn) [Example 318] |  | 63.1 |  | 27.6
CC(=O)N1CCN(C(=O)c2ccc(-c3ccc4c(n3)Oc3ccccc3[C@@H]4C(C)(C)C(=O)Nc3nncs3)cc2F)CC1 [Example 324] |  | 431 |  | 54.9
COC[C@H]1CCCN1C(=O)c1ccc(-c2ccc3c(n2)Oc2ccccc2[C@@H]3C(C)(C)C(=O)Nc2nncs2)cc1F [Example 325] |  | 90.2 |  | 56.1
CC(C)(C(=O)Nc1nncs1)[C@H]1c2ccccc2Oc2nc(-c3ccc(C(=O)N4CCOCC4)c(F)c3)ccc21 [Example 327] | 8.93 |  | 59.45 | 
CC(C)(C(=O)Nc1nncs1)[C@H]1c2ccccc2Oc2nc(-c3ccc(C(=O)N4CCOCC4)c(Cl)c3)ccc21 [Example 328] | 18.6 |  | 66.06 | 
COC[C@H]1CCCN1C(=O)c1ccc(-c2ccc3c(n2)Oc2ccccc2[C@@H]3C(C)(C)C(=O)Nc2nncs2)cc1Cl [Example 330] |  | 21.9 |  | 60.6
CC(C)(C(=O)Nc1nncs1)[C@H]1c2ccccc2Oc2nc(-c3ccc(C(=O)N4CCC[C@@H]4CO)cc3)ccc21 [Example 331] |  | 33.7 |  | 36.3

The next lines start with results.

EC50 (Cellular Transrepression Assay) [nM] | EC50 [2] [nM] | SMILES | AP-1 Max % inh (Cellular Transrepression Assay) (Cellular Transrepression Assay) [%] | Emax [1] [%]
14.3 |  | CC(C)Oc1ccc(-c2ccc3c(n2)Oc2ccccc2C3C(C)(C)C(=O)Nc2nncs2)cc1 (stereo not drawn) [Example 209] | 50.21 | 
77.7 |  | CCCCOc1ccc(-c2ccc3c(n2)Oc2ccccc2C3C(C)(C)C(=O)Nc2nncs2)cc1 (stereo not drawn) [Example 210] | 39.38 | 
41.3 |  | CC(C)Oc1ccc(-c2ccc3c(n2)Oc2ccccc2C3C(C)(C)C(=O)Nc2nncs2)cc1F (stereo not drawn) [Example 211] | 49.63 | 
19.6 |  | CCCCc1ccc(-c2ccc3c(n2)Oc2ccccc2C3C(C)(C)C(=O)Nc2nncs2)cc1 (stereo not drawn) [Example 212] | 63.05 | 
41 |  | CCCOc1ccc(-c2ccc3c(n2)Oc2ccccc2C3C(C)(C)C(=O)Nc2nncs2)cc1 (stereo not drawn) [Example 217] | 45.81 | 
180 |  | CC(C)(C(=O)Nc1nncs1)[C@H]1c2ccccc2Oc2nc(-c3ccncc3)ccc21 [Example 219] | 35.87 | 
839 |  | CC(C)(C(=O)Nc1nncs1)[C@H]1c2ccccc2Oc2nc(-c3ccc(O)c(F)c3)ccc21 [Example 223] | 27.87 | 
920 |  | CC(C)(C(=O)Nc1nncs1)[C@H]1c2ccccc2Oc2nc(-c3cccc(F)c3)ccc21 [Example 225] | 45.65 | 
18.1 |  | CCSc1ccc(-c2ccc3c(n2)Oc2ccccc2C3C(C)(C)C(=O)Nc2nncs2)cc1 (stereo not drawn) [Example 226] | 49.05 | 
42 |  | CC(=O)c1ccc(-c2ccc3c(n2)Oc2ccccc2C3C(C)(C)C(=O)Nc2nncs2)cc1F (stereo not drawn) [Example 229] | 39.34 | 
550 |  | CCCOc1ccc(-c2ccc3c(n2)Oc2ccccc2C3C(C)(C)C(=O)Nc2nncs2)cc1F (stereo not drawn) [Example 230] | 52.33 | 
733 |  | CC(C)(C(=O)Nc1nncs1)C1c2ccccc2Oc2nc(-c3ccc(CC(=O)O)cc3)ccc21 (stereo not drawn) [Example 231] | 38.36 | 
 | 51.9 | CC(C)C(O)c1ccc(-c2ccc3c(n2)Oc2ccccc2[C@@H]3C(C)(C)C(=O)Nc2nncs2)cc1 (stereo partly drawn) [Example 240] |  | 61.7
 | 25.3 | C[S+]([O-])c1ccc(-c2ccc3c(n2)Oc2ccccc2[C@@H]3C(C)(C)C(=O)Nc2nncs2)cc1 (stereo partly drawn) [Example 241] |  | 46.8
 | 17.8 | CN(C)C(=O)c1ccc(-c2ccc3c(n2)Oc2ccccc2[C@@H]3C(C)(C)C(=O)Nc2nncs2)cc1F [Example 250] |  | 48.4
 | 23.1 | CN(C)C(=O)c1ccc(-c2ccc3c(n2)Oc2ccccc2[C@@H]3C(C)(C)C(=O)Nc2nncs2)cc1Cl [Example 260] |  | 67.3
583 |  | CC(C)N(C)C(=O)c1ccc(-c2ccc3c(n2)Oc2ccccc2[C@@H]3C(C)(C)C(=O)Nc2nncs2)cc1F [Example 329] | 40.81 | 
